Values quoted from earlier work in patent US20060147566A1, “Use of physiologically active fatty acids” (priority 2004, published 2006).

Test system: pruritus
Settings: known from clinical studies; acyl salicylate prior art

CC(=O)Oc1ccccc1C(=O)O [aspirin]
significance for the treatment of pruritus: about 50%
